Test results published in patent publication US6930131B2, “Aryl substituted 3-ethoxy phenyl trifluoromethane sulfonamides for the treatment of non-insulin dependent diabetes mellitus (NIDDM)” (Wyeth, priority 2002, dated 2005).

Legend:
ob/ob (C57 B1/6J) mice = test: Hypoglycemic effect in diabetic ob/ob mice; assay type: in vivo, mouse
Procedure: Hypoglycemic Effect in Diabetic OB/OB Mice
Procedure: In each study, male or female ob/ob (C57 B1/6J) mice and their mean litermates (ob/+ or +/+, Jackson Laboratories) ages 2 to 5 months (10 to 65 g) were randomized according to plasma glucose into 4 groups of 10 mice. The mice were housed 5 per cage and were maintained on normal rodent chow with water ad libitum. Mice receive compound daily by gavage (suspended in 0.5 ml of 0.5% methyl cellulose); dissolved in the drinking water; or admixed in the diet. The dose of compounds given ranges from 2.5 to 200 mg/kg body weight/day. Body weight of fed animals was measured at the beginning of each week and doses for the entire week were calculated using this weight and were expressed in terms of the active moiety of the compound. Control mice receive vehicle only. […]
Measurements: The plasma was isolated by centrifugation and the concentration of glucose was measured enzymatically on an Abbott V. P. Analyzer and the plasma concentration of insulin was determined by radioimmunoassay (Heding, 1972)
Analysis of variance followed by Dunnett's Comparison Test (one-tailed) was used to estimate the significant difference between the plasma glucose values from the control group and the individual compound treated groups (CMS SAS Release 5.18). A compound will be considered active if the difference has a p<0.05.

[1] = system: Hepatocytes Isolated and Cultured from Obese Zucker (fa/fa) Rats; test: Inhibition of glucose output from hepatocytes isolated and cultured from obese Zucker (fa/fa) rats; assay type: cell-based, rat; conditions: inhibition of glucose output vs glucagon stimulated cultured hepatocytes
Procedure: Inhibition of Glucose Output from Hepatocytes Isolated and Cultured from Obese Zucker (fa/fa) Rats and their Lean Controls
Culturing of Hepatocytes: Isolated hepatocytes were plated on 12 well rat-tail collagen coated plates at a cell density of 5×10(5) cells/ml (approximately 1 ml of cell suspension per well). Following a one hour attachment period in which plates were incubated in a CO2 incubator at 37 deg C. (95% O2, 5% CO2), the supernatant containing unattached hepatocytes was removed and replaced with fresh media (1 ml/well) containing 1 μM dexamethasone and 100 pM insulin. Cells were maintained at 37 deg C. for 48 hours in a 95% O2, 5% CO2 environment. At the end of the first 24 hours, the media was aspirated off of the wells and replaced with fresh media containing the same concentrations of dexamethasone and insulin as described earlier. Treatment with Drugs and Assessment of Glucose Output: Drugs were routinely added with fresh media 24 hours after the initial attachment period. Eighteen hours later, media was aspirated and 500 μl of fresh Hank's buffer, Buffer D (glucose-free) supplemented with hormones, gluconeogenic substrates and drug(s) was added to each well and incubated for 4 hours. At the end of the 4 hour incubation, media from each well was removed and assayed for glucose content using the hexokinase/glucose-6-phosphate dehydrogenase coupled assay on the Boehringer Mannheim model 911 auto analyzer. Glucose concentration was expressed as μg/ml. Three of the plates from each treated group were frozen for subsequent determination of protein content. Two plates from each treatment group were used to assess the cytotoxicity of drug(s) and other agents as determined by the MTT (tetrazolium) dye reduction method (see below).
Assessment of Cytotoxicity using MTT Dye Reduction Assay: Two plates with no insulin treatment and two plates with 10^−8 M insulin treatment were used for the MTT dye reduction assay. Following removal of media from the plates for measurement of glucose output, wells were washed once with 1 ml of Hank's buffer (0.5% BSA). Aliquots of […] of Hank's buffer (1.1% BSA) and […] MTT solution (5 mg MTT/ml in phosphate buffered saline (PBS) filtered through 0.45 micron syringe filter) were added to each well. Plates were incubated for one hour at 37 deg C. After one hour incubation, the MTT dye solution was aspirated off and […] of HCL/isopropanol solution (8 ml of 1 N HCL and 192 ml of isopropanol) was added to each well. HCL/isopropanol solution was mixed by drawing liquid into a pipetman 2 to 3 times and then carefully transferred into a 96 well flat bottom plate. The 96 well plate was read on a plate reader (UV max kinetic microplate reader, Molecular Devices) at 570 nm test wavelength and 650 nm reference wavelength. The results were expressed as % inhibition from the control (lactate and glucagon treated) well.
Protein test procedure: Three plates with no insulin treatment and three plates with 10^−8 M insulin treatment were used for protein determination. After supernatant has been removed for determination of glucose output the plates were frozen and stored at −20 deg C. until ready to assay for protein content. Prior to determination of protein the plates were defrosted at room temperature for 15 minutes. An aliquot of 1 ml 0.1 N NaOH was added to each well. Plates were incubated at 4 deg C. overnight. Solutions for measurement of protein content were mixed by pipetting the NaOH solution up and down several time with a 1 ml pipette and then transferring to a small polyethylene tube. Protein determination was based on that of the Pierce BCA protein assay protocol (Pierce cat. no. 23223). A set of protein standards (0.2, 0.4, 0.6, 0.8, and 1 mg/ml BSA) was prepared by serial dilution of 1 mg/ml bovine serum albumin with 0.1 N NaOH, and 40 μl of each standard, or control blank was pipetted into a 96-well plate in duplicate. Each unknown protein sample (40 μl) was tested in triplicate. […]

O=S(=O)(Nc1cccc(CCOCc2ccc(-c3ccc(C(F)(F)F)cc3)cc2)c1)C(F)(F)F [Example 2, C,C,C-trifluoro-N-{3-[2-(4′-trifluoromethyl-biphenyl-4-ylmethoxy)-ethyl]-phenyl}-methanesulfonamide]
melting point: 98 to 100 °C | Reduction in Plasma Glucose Day 1 (6 hr) p.o. (ob/ob (C57 B1/6J) mice; 5 mg/kg p.o.): −8% | Reduction in Plasma Glucose Day 3 (6 hr) p.o. (ob/ob (C57 B1/6J) mice; 5 mg/kg p.o.): −34%

O=S(=O)(Nc1cccc(CCOCc2ccc(-c3ccc(Cl)cc3)cc2F)c1)C(F)(F)F [Example 11, N-{3-[2-(4′-Chloro-3-fluoro-biphenyl-4-ylmethoxy)-ethyl]-phenyl}-C,C,C-trifluoro methane sulfonamide]
IC50 [1]: 10 µM

CC(C)(C)c1ccc(-c2ccc(COCCc3cccc(NS(=O)(=O)C(F)(F)F)c3)c(F)c2)cc1 [Example 19, N-{3-[2-(4′-tert-Butyl-3-fluoro-biphenyl-4-ylmethoxy)-ethyl]-phenyl}-C,C,C-trifluoro-methanesulfonamide]
melting point: 89 to 90 °C | IC50 ([1]; Rattus norvegicus, Hepatocyte): 8 µM

O=S(=O)(Nc1cccc(CCOCc2ccc(-c3ccc(F)cc3)cc2Cl)c1)C(F)(F)F [Example 22]
IC50 [1]: 2.2 µM

O=S(=O)(Nc1cccc(CCOCc2ccc(-c3ccc(Cl)cc3)cc2Cl)c1)C(F)(F)F [Example 23, N-{3-[2-(3-Chloro-4′-chloro-biphenyl-4-ylmethoxy)-ethyl]-phenyl}-C,C,C-trifluoro methane sulfonamide]
IC50 [1]: 1.7 µM | Reduction in Plasma Glucose Day 1 (6 hr) p.o. (ob/ob (C57 B1/6J) mice; 5 mg/kg p.o.): −37% | Reduction in Plasma Glucose Day 3 (6 hr) p.o. (ob/ob (C57 B1/6J) mice; 5 mg/kg p.o.): −37%

COc1cc(-c2ccc(Cl)cc2)ccc1COCCc1cccc(NS(=O)(=O)C(F)(F)F)c1 [Example 26, N-{3-[2-(4′-Chloro-3-methoxy-biphenyl-4-ylmethoxy)-ethyl]-phenyl}-C,C,C-trifluoro methane sulfonamide]
IC50 [1]: 2.3 µM | Reduction in Plasma Glucose Day 1 (6 hr) p.o. (ob/ob (C57 B1/6J) mice; 20 mg/kg p.o.): −20% | Reduction in Plasma Glucose Day 3 (6 hr) p.o. (ob/ob (C57 B1/6J) mice; 20 mg/kg p.o.): +1

COc1ccc(-c2cc(COCCc3cccc(NS(=O)(=O)C(F)(F)F)c3)ccc2F)cc1 [Example 42, C,C,C-Trifluoro-N-{3-[2-(6-fluoro-4′-methoxy-biphenyl-3-yl-methoxy)-ethyl]-phenyl}-methanesulfonamide]
melting point: 70 to 71 °C | Reduction in Plasma Glucose Day 1 (6 hr) p.o. (ob/ob (C57 B1/6J) mice; 10 mg/kg p.o.): −14% | Reduction in Plasma Glucose Day 3 (6 hr) p.o. (ob/ob (C57 B1/6J) mice; 10 mg/kg p.o.): −14%

CC(C)(C)c1ccc(-c2nc(COCCc3cccc(NS(=O)(=O)C(F)(F)F)c3)cs2)cc1 [Example 43, N-(3-{2-[2-(4-tert-Butyl-phenyl)-thiazol-4-ylmethoxy]-ethyl}-phenyl)-C,C,C-trifluoro-methanesulfonamide]
melting point: 110 to 112 °C | IC50 ([1]; Rattus norvegicus, Hepatocyte): 6.9 µM

O=S(=O)(Nc1cccc(CCOCc2csc(-c3ccc(F)c(Cl)c3)n2)c1)C(F)(F)F [Example 56, N-(3-{2-[2-(3-Chloro-4-fluoro-phenyl)-thiazol-4-ylmethoxy]-ethyl}-phenyl)-C,C,C-trifluoro-methanesulfonamide]
IC50 ([1]; Rattus norvegicus, Hepatocyte): 15 µM | Reduction in Plasma Glucose Day 1 (6 hr) p.o. (ob/ob (C57 B1/6J) mice; 5 mg/kg p.o.): −16% | Reduction in Plasma Glucose Day 3 (6 hr) p.o. (ob/ob (C57 B1/6J) mice; 5 mg/kg p.o.): −26%

CC(C)(C)c1ccc(COCCc2cccc(NS(=O)(=O)C(F)(F)F)c2)cc1 [Example 69, N-{3-[2-(4-tert-Butyl-benzyloxy)-ethyl]-phenyl}-C,C,C-trifluoro-methane sulfonamide]
melting point: 40 to 42 °C

O=S(=O)(Nc1cccc(CCOCc2ccc(Br)cc2F)c1)C(F)(F)F [Example 72, N-{3-[2-(4-Bromo-2-fluoro-benzyloxy)-ethyl]-phenyl}-C,C,C-trifluoro-methanesulfonamide]
melting point: 48 to 50 °C

O=S(=O)(Nc1cccc(CCOCc2cccc(OCc3ccccc3)c2)c1)C(F)(F)F [Example 73, N-{3-[2-(3-benzyloxy-benzyloxy)-ethyl]-phenyl}-C,C,C-trifluoro-methanesulfonamide]
melting point: 62 to 63 °C

O=S(=O)(Nc1cccc(CCOCc2ccc(I)cc2)c1)C(F)(F)F [Example 74, N-{3-[2-(4-Iodo-benzyloxy)-ethyl]-phenyl}-C,C,C-trifluoro-methanesulfonamide]
melting point: 48 to 50 °C

O=S(=O)(Nc1cccc(CCOCc2ccc(Oc3ccccc3)cc2)c1)C(F)(F)F [Example 76, N-{3-[2-(4-Phenoxy-benzyloxy)-ethyl]-phenyl}-C,C,C-trifluoro-methane sulfonamide]
melting point: 47 to 49 °C

CC(C)(C)c1ccc(-c2nc(COCCc3cccc(NS(=O)(=O)C(F)(F)F)c3)no2)cc1 [Example 81, N-{3-[2-(5-(4-tert-Butyl-phenyl)-[1,2,4]oxadiazol-3-ylmethoxy)-ethyl]-phenyl}-C,C,C-trifluoro-methanesulfonamide]
melting point: 75 to 77 °C

O=S(=O)(NCCc1cccc(OCc2noc(-c3ccc(C(F)(F)F)cc3)n2)c1)C(F)(F)F [Example 82, N-{2-[3-(5-(4-Trifluoromethyl-phenyl) [1,2,4]oxadiazol-3-ylmethoxy)-phenyl]-ethyl}-C,C,C-trifluoro-methanesulfonamide]
melting point: 83 to 86 °C

O=S(=O)(Nc1cccc(CCOCc2noc(-c3cccc(C(F)(F)F)c3)n2)c1)C(F)(F)F [Example 83, N-{3-[2-(5-(3-trifluoromethyl-phenyl)-[1,2,4]oxadiazol-3-ylmethoxy)-ethyl]-phenyl}-C,C,C-trifluoro-methanesulfonamide]
melting point: 62 to 64 °C

COc1cccc(-c2nc(COCCc3cccc(NS(=O)(=O)C(F)(F)F)c3)no2)c1 [Example 84, N-{3-[2-(5-(3-methoxy-phenyl)-[1,2,4]oxadiazol-3-ylmethoxy)-ethyl]-phenyl}-C,C,C-trifluoro-methanesulfonamide]
melting point: 52 to 54 °C

COc1ccc(-c2nc(COCCc3cccc(NS(=O)(=O)C(F)(F)F)c3)no2)cc1 [Example 85, N-{3-[2-(5-(4-methoxy-phenyl)-[1,2,4]oxadiazol-3-ylmethoxy)-ethyl]-phenyl}-C,C,C-trifluoro-methanesulfonamide]
melting point: 88 to 90 °C

O=S(=O)(Nc1cccc(CCOCc2noc(-c3ccc(C(F)(F)F)cc3)n2)c1)C(F)(F)F [Example 87, N-{3-[2-(5-(4-trifluoromethylphenyl)-[1,2,4]oxadiazol-3-ylmethoxy)-ethyl]-phenyl}-C,C,C-trifluoro-methanesulfonamide]
melting point: 83 to 86 °C

O=C(O)c1ncccc1S [Na-Mercaptopicolinic acid, reference compound]
IC50 [1]: 45 µM
